Laboratory results as given in PMC9217999 (Targeted Oncology, 2022).
Marks after values point to notes of the source that are not given here.

How the values were obtained:
[1] = test system: relapsed/refractory solid tumors with known/expected MAPK pathway involvement; assay: Investigator-assessed anti-tumor activity in iMATRIX-cobi; type: in vivo, human
[2] = cited from earlier work
[3] = Dose escalation PN in NF1 (n = 12)

O=C(c1ccc(F)c(F)c1Nc1ccc(I)cc1F)N1CC(O)([C@@H]2CCCCN2)C1 [cobimetinib]
Best overall response: CR ([1]; All LGG patients (n = 32)): 0 n (%) | Best overall response: Non-CR/Non-PD ([1]; All LGG patients (n = 32)): 1 (3) n (%) | Best overall response: Non-evaluable ([1]; All LGG patients (n = 32)): 1 (3) n (%) | Best overall response: Not available ([1]; All LGG patients (n = 32)): 2 (6) n (%) | Best overall response: ORR ([1]; All LGG patients (n = 32)): 3 (9) n (%) | Best overall response: PD ([1]; All LGG patients (n = 32)): 7 (22) n (%) | Best overall response: PR ([1]; All LGG patients (n = 32)): 3 (9) n (%) | Best overall response: SD ([1]; All LGG patients (n = 32)): 18 (56) n (%) | Best overall response: CR ([1]; Dose escalation LGG (n = 20)): 0 n (%) | Best overall response: Non-CR/Non-PD ([1]; Dose escalation LGG (n = 20)): 1 (5) n (%) | Best overall response: Non-evaluable ([1]; Dose escalation LGG (n = 20)): 0 n (%) | Best overall response: Not available ([1]; Dose escalation LGG (n = 20)): 2 (10) n (%) | Best overall response: ORR ([1]; Dose escalation LGG (n = 20)): 2 (10) n (%) | Best overall response: PD ([1]; Dose escalation LGG (n = 20)): 5 (25) n (%) | Best overall response: PR ([1]; Dose escalation LGG (n = 20)): 2 (10) n (%) | Best overall response: SD ([1]; Dose escalation LGG (n = 20)): 10 (50) n (%) | Best overall response: CR [1, 3]: 0 n (%) | Best overall response: Non-CR/Non-PD [1, 3]: 0 n (%) | Best overall response: Non-evaluable [1, 3]: 0 n (%) | Best overall response: Not available [1, 3]: 0 n (%) | Best overall response: ORR [1, 3]: 0 n (%) | Best overall response: PD [1, 3]: 0 n (%) | Best overall response: PR [1, 3]: 0 n (%) | Best overall response: SD [1, 3]: 12 (100) n (%) | Best overall response: CR ([1]; Expansion LGG (n = 12)): 0 n (%) | Best overall response: Minor response per RANO criteria ([1]; Expansion LGG (n = 12)): 1 (8)^a n (%) | Best overall response: Non-CR/Non-PD ([1]; Expansion LGG (n = 12)): 0 n (%) | Best overall response: Non-evaluable ([1]; Expansion LGG (n = 12)): 1 (8) n (%) | Best overall response: Not available ([1]; Expansion LGG (n = 12)): 0 n (%) | Best overall response: ORR ([1]; Expansion LGG (n = 12)): 1 (8) n (%) | Best overall response: PD ([1]; Expansion LGG (n = 12)): 2 (17) n (%) | Best overall response: PR ([1]; Expansion LGG (n = 12)): 1 (8) n (%) | Best overall response: SD ([1]; Expansion LGG (n = 12)): 8 (67) n (%) | Best overall response: CR ([1]; Overall population (n = 56)): 0 n (%) | Best overall response: Non-CR/Non-PD ([1]; Overall population (n = 56)): 1 (2) n (%) | Best overall response: Non-evaluable ([1]; Overall population (n = 56)): 2 (4) n (%) | Best overall response: Not available ([1]; Overall population (n = 56)): 4 (7) n (%) | Best overall response: ORR ([1]; Overall population (n = 56)): 3 (5) n (%) | Best overall response: PR ([1]; Overall population (n = 56)): 3 (5) n (%) | Best overall response: SD ([1]; Overall population (n = 56)): 33 (59) n (%) | Median DoR ([1]; in vivo): not reached | Median duration of stable disease ([1]; overall): 11.0 months | Non-evaluable ([1]; overall): 4% | Median OS ([1]; overall population): not reached | Overall response rate ([1]; overall, 3/56, all partial responses in LGG): 5.4% | Partial response (PR) ([1]; overall, 3/56 patients, all with LGG): 5% | Stable disease ([1]; overall, 33/56): 59% | Mean accumulation ratio in adults [2]: 2.4 fold
